# Experimental data reported in patent publication US9676793B2, “Co-crystals of 5-amino-2-oxothiazolo[4,5-d]pyrimidin-3(2H)-yl-5-hydroxymethyl tetrahydrofuran-3-yl acetate and methods for preparing and using the same” (Hoffmann-La Roche Inc., priority 2014, dated 2017).
# Test system: HBV
# Experiment: Indirect inhibition of HBV replication by conditioned media from stimulated PBMCs
# Format: cell-based, HBV (genotype D, strain ayw)
# Method: TLR-7 agonists stimulate the production cytokines and chemokines from human PBMC's. Conditioned medium was obtained by contacting cultured PBMC's with DMSO (control) or 100 μM R06871765 (drug) was contacted with HBV infected HepaRGd cells.
# HBV infected HepaRGd cells were incubated with various dilutions of conditioned media collected from PBMCs isolated from healthy donors—donor 70615 (graphs A-D) and donor 77726 (graphs E, F). The PBMC's from each donor were stimulated with either DMSO (graphs A, C, E) or 100 μM R06871765 (graphs B, D, F). […] Three experiments were performed. In the first experiment (FIGS. 4A, 4B), conditioned media from PBMCs (donor 70615) was first diluted 10-fold using differentiation media, and then serially diluted in 3-fold increments prior to addition of each of the diluted conditioned medium to HBV infected HepaRGd cells. In the second experiment (FIGS. 4C, 4D), conditioned media from PBMCs (donor 70615) was first diluted 5-fold using differentiation media, and then serially diluted in 5-fold increments prior to addition to HBV infected HepaRGd cells. In the third experiment (FIGS. 4E, 4F), conditioned media from PBMCs (donor 77726) was first diluted 5-fold using differentiation media, and then serially diluted in 5-fold increments prior to addition to HBV infected HepaRGd cells. The HBV replication inhibitory activity for control and R06871765 treated cells was determined by monitoring the levels of HBV DNA and HBsAg secreted in culture medium.
# [1] = conditioned media of PBMCs stimulated with 100 μM
# [2] = conditioned media of PBMCs stimulated with 100 μM, Feb. 28, 2013 donor 77726
# [3] = conditioned media of PBMCs stimulated with 100 μM, Jan. 3, 2013 donor 70615
# [4] = conditioned media of PBMCs stimulated with 100 μM, Nov. 12, 2012 donor 70615
# [5] = stimulated PBMC conditioned media
smiles,measurement,setting,value
Nc1nc2c(sc(=O)n2[C@@H]2O[C@H](CO)C[C@H]2O)c(=O)[nH]1 [R06871765],"EC50 converted fold dilution, HBV DNA secretion",[1],318 fold dilution
same,"EC50 converted fold dilution, HBsAg secretion",[1],16 fold dilution
same,"EC50 [log dilution], HBV DNA secretion",[2],−2.1 log dilution
same,"EC50 [log dilution], HBsAg secretion",[2],−1.0 log dilution
same,"EC50 [log dilution], HBV DNA secretion",[3],−2.9 log dilution
same,"EC50 [log dilution], HBsAg secretion",[3],−1.4 log dilution
same,"EC50 [log dilution], HBV DNA secretion",[4],−2.5 log dilution
same,"EC50 [log dilution], HBsAg secretion",[4],<−1.0 log dilution
same,"EC50 [log dilution], HBsAg secretion, Ave ± SD","conditioned media of PBMCs stimulated with 100 μM, average",−1.2 log dilution
same,"EC50 [log dilution], HBV DNA secretion, Ave ± SD","conditioned media of PBMCs stimulated with 100 μM, average of three experiments",−2.5 ± 0.4 log dilution
same,average EC50 against HBV DNA,[5],−2.5±0.4 log10
same,average EC50 against HBV surface antigen (HBsAg) secretion,[5],−1.2 log10
